# Results: a melting point compilation (Tetko et al.; mined from patent text by program, amines drawn as free bases though some values may be those of a salt)
row,Compound,melting point [°C]
1,COc1ccc(F)cc1C(C)(C)CC(O)(Cc1ccccn1)C(F)(F)F (configuration not stated),94 to 96
2,c1ccc2sc(SSN(C3CCCCC3)C3CCCCC3)nc2c1,84 to 86
3,COC(=O)C1Cc2c([nH]c3ccccc23)C(C)N1Cc1ccccc1 (configuration not stated),143 to 144
4,Cc1cccnc1C=CCN1CCc2nc(N)sc2CC1,188 to 190
5,COc1ccc(Cn2ccc3c(-c4ccco4)ncnc32)cc1,130 to 131
6,Brc1cn2c(Br)cnc2c(NCc2ccco2)n1,143
7,COc1cc(Nc2cc(-c3ccccc3)on2)ccc1-c1cnco1,173 to 175
8,CCOc1cc2c(cc1OCC)CCC(C(=O)N1CCN(C(=O)c3cc(OC)c(OC)c(OC)c3)CC1)=C2,127 to 129
9,O=C(O)c1c[nH]c(Br)c1-c1ccc(Cl)cc1,> 205
10,NC(=O)CCSSSSCCC(N)=O,127
11,Cn1nc(-c2c(F)cccc2Cl)nc1-c1ccc(CBr)c(Cl)c1,124 to 126
12,CCCCC(=O)NCc1ccc2c(c1)C(=O)N(C1CCC(=O)NC1=O)C2=O (configuration not stated),184 to 186
13,C#CC(C)(C)Oc1ccc(-c2ccnc(C)c2)cc1,37 to 40
14,Cc1ncn(Nc2ccccc2)c1C,178
15,C#Cc1cccc(Nc2ncnc3cnc(NC(=O)/C=C/CN(C)C)cc23)c1,163 to 166
16,CCOC(=O)C1=C(C)NC(CO)=C(C(=O)OCC)C1c1ccccc1C(F)(F)F (configuration not stated),147 to 148
17,CCCCOC(=O)c1ccccc1-c1ccc(Cn2c(CCCC)nc(C(C)(C)O)c2C(=O)O)cc1,158 to 159
18,OC(COc1ccccc1-c1cc[nH]n1)CN1CCN(c2ccc(Cl)cc2)CC1 (configuration not stated),120 to 121
19,COc1cc(C(=O)c2nc(NS(C)(=O)=O)c3ccccn23)ccc1[N+](=O)[O-],231
20,CCNc1ncc2cc(-c3c(Cl)cccc3Cl)c(=O)n(C)c2n1,180 to 182
21,COc1cccc(C2CCCCNC2=O)c1 (configuration not stated),116 to 117
22,Cc1cc2ncnn2nc1OCC(C)(C)CS(N)(=O)=O,216 to 218
23,COCc1cc(N)n2nc(SC)c(S(=O)(=O)c3ccccc3)c2n1,> 230
24,Cc1oc(-c2ccccc2)nc1CCOc1ccc(COc2cc3ccccc3cc2C(=O)O)cc1,135 to 137
25,O=C(Nc1ccc(N2CCCC2)nc1)c1cc2cc(C(F)(F)F)cnc2n1Cc1cccc(F)c1,234 to 236
26,COc1ccc(C2CNCc3ccc(C)cc32)cc1OC (configuration not stated),94 to 96

row,Compound,melting point [°C]
1,COc1ccc(-c2nc(Sc3ccc(C)cc3)n(C3CCCCO3)c2-c2ccc(OC)cc2)cc1 (configuration not stated),192
2,O=[N+]([O-])c1ccc(-c2cnc3nc(S(=O)(=O)Cl)nn3c2)cc1,159 to 167
3,CS(=O)c1ncc(Br)cn1 (configuration not stated),90
4,O=C(NCc1ncc(C(F)(F)F)cc1Cl)c1c(Cl)ccnc1Cl,122 to 124
5,O=C1CCC(N2Cc3c(OCc4ccc(CN5CCC(O)CC5)cc4)cccc3C2=O)C(=O)N1 (configuration not stated),204 to 206
6,CC(=O)C(=Cc1ccccc1)C(C)=O,165 to 167
7,N#Cc1cccc(-c2cccs2)n1,88.2 to 88.6
8,CCOC(=O)C1OC1C(=O)NCc1ccccc1 (configuration not stated),90 to 91
9,Cc1ccc(NC(=O)CN2CCNCC2)cc1Nc1ncc(-c2cccnc2)o1,176 to 178
10,CCCCc1ccc(CCCCCCC(=O)O)cc1,32 to 33
11,CS(=O)c1csc(C(=O)O)c1 (configuration not stated),188 to 190
12,CCCSc1sc(C(=O)OCC)c2c1-c1nc(-c3ccccc3)sc1CC2,125 to 126
13,CCCCCCCCNC(=O)CP(=O)(O)O,142 to 143
14,Cc1cccc2c(-c3ccc(Cl)cc3)nccc12,122 to 124
15,CC1NC(=O)C2=C1c1ccc(Cl)cc1C(c1ccccc1Cl)=NC2 (configuration not stated),239 to 241
16,Nc1nc2ccccc2c2c1nc(O)n2CC1CCOCC1,> 250
17,CCC(=O)NCc1nc(-c2cc(C(C)(C)C)c(O)c(C(C)(C)C)c2)cs1,82 to 83.5
18,CC1(COc2ccc([N+](=O)[O-])cc2)CC(=O)c2cc(O)c(C(C)(C)C)cc2O1 (configuration not stated),205 to 209
19,CC1CC2(C)C(CCC3C4CCC(C5(C)OCCO5)C4(C)CC(=O)C32)CC1O (configuration not stated),167 to 168
20,S=C(Cc1ccc(Cl)cc1)N1CCOCC1,175 to 177
21,O=c1ccn([C@@H]2C[C@H](O)[C@@H](O)[C@H]2O)cc1 (racemic),186 to 188
22,CN1CCC(c2c3n(c4ccc(O)cc24)CCC3)CC1,> 250
23,O=C1c2ccccc2S(=O)(=O)N1CS(=O)(=O)c1c(Cl)cccc1Cl,201 to 203
24,NC(=O)c1sc2ncnc(-c3cccc(NC(=O)Nc4ccncc4)c3)c2c1N,177 to 179
25,COCCNC(=O)c1nc(C(=O)OC)c2cc(Cc3ccc(F)cc3)cnc2c1OCc1ccccc1,94
26,CCOC(=O)Nc1cc(N[C@H](C)C(=O)c2ccccc2)c([N+](=O)[O-])c(N)n1,150 to 155

row,Compound,melting point [°C]
1,Cn1c2nc3ccccc3nc2c2cccc(C=O)c21,220
2,O=C(Nc1ccc(-c2c[nH]c(=O)cn2)cc1)OCc1ccccc1,240 to 244
3,CSC(=NS(=O)(=O)c1ccc(C)cc1)N1CCc2nc(N)sc2C1,191 to 195
4,NS(=O)(=O)c1cccc(-c2noc(-c3cnc4ccc(-c5ccc(C(F)(F)F)cc5)cn34)n2)c1,288
5,CCOc1ncc(C(C)=O)cc1C(=O)Nc1c(C(N)=O)nn(C2CCN(C(=O)OC(C)(C)C)CC2)c1CC,197 to 202
6,CC(C)(C)c1cc(C(=O)CI)cc(C(C)(C)C)c1O,88 to 89
7,CC1CCC(C(=O)Nc2ccc(-c3ncc(-c4ccc(NC(=O)C5CCCCCC5)cc4)[nH]3)cc2)CC1 (configuration not stated),244 to 246
8,CC1CC(=O)Nc2nc(C#N)c3ncccc3c21 (configuration not stated),> 300
9,CCOC(=O)c1nn(-c2ccc(C)cc2)nc1C,47 to 48
10,COc1ccc(-c2nc3ccc(O)cc3[nH]2)cc1C12CC3CC(CC(C3)C1)C2,230
11,CC(C)(C)C1CSC2(CCC(C)(C(Cl)Cl)CC2)SC1 (configuration not stated),163
12,CCCC(c1ccncc1)n1ccc2ccccc21 (configuration not stated),91 to 94
13,Cn1nnnc1-c1cn(C)c2cc(Cl)ccc2c1=O,270 to 273
14,CS(=O)(=O)Oc1ccc(N)c(OCCBr)c1,69 to 70
15,CCOC(=O)C1=C(C)NC(CSCCOC(C)=O)=C(C(=O)OCC)C1c1cccc([N+](=O)[O-])c1 (configuration not stated),84 to 86
16,COCOc1ccc(OC(C)C(=O)Nc2ccc(OC(F)(F)F)cc2)cc1 (configuration not stated),115 to 116
17,CCCNC(Nc1cc(C(F)(F)F)cc(C(F)(F)F)c1)=C(C#N)S(=O)(=O)c1ccc(Cl)cc1,196 to 198
18,NC1=CC(=O)CC(c2cccc(Cl)c2Cl)C1 (configuration not stated),209 to 210
19,COc1cccc(C=O)c1OC(C)=O,75.4 to 76.2
20,CC(C)Cn1c(=O)n(C)c(=O)c2c1ncn2CCCO,135 to 137
21,O=C1C(Br)CCN1c1ncc(C(F)(F)F)s1 (configuration not stated),105 to 106
22,O=c1c(CCCCc2ccncc2)cc2cccnc2n1-c1cccc([N+](=O)[O-])c1,169 to 170
23,CCCCCCCNC(=O)Nc1c(F)cc(F)cc1CCc1ccc(CC(C)(C)C)cc1,105 to 107
24,OCc1ncc2n1CCC2,110 to 120
25,CC(C)(C)OC(=O)N1CCCC(c2nc3c(N[C@H]4[C@@H](C(N)=O)[C@@H]5C=C[C@H]4C5)ccnc3[nH]2)C1 (some centres not stated),222 to 225
26,COC(=O)c1cc(F)c2ncc(C(=O)NCc3ccc(Cl)cc3)c(O)c2c1,288 to 290

row,Compound,melting point [°C]
1,CC1(C)CCc2cc(C(=O)c3ccc4cc(C(=O)O)ccc4c3)ccc2O1,269
2,Cc1c(C(=O)Nc2ccc(N3CCOCC3)c(C#N)c2)cnn1-c1ccc(F)cc1,201 to 202
3,CCC(CC)O[C@@H]1C=C(C(=O)O)C[C@H](CC=O)[C@H]1NC(C)=O,70 to 71
4,c1cn(Cc2ccc3c(c2)Cc2c(-c4ccsc4)n[nH]c2-3)nn1,250 to 254
5,CCCCCCCCCCc1sc2c(sc3c2sc2c4sccc4sc23)c1CCCCCCCCCC,50.9 to 52.5
6,CCCCCCCC1CCC(C(C#N)Cc2ccc(Br)cc2)CC1 (configuration not stated),60 to 62
7,O=C(Nc1ccccc1)O[C@@H]1CN=C(c2ccc3ccccc3c2)O[C@H]1c1ccccc1 (racemic),163
8,CC1C(c2ccccc2)NC(=S)N1O (configuration not stated),202
9,CC(C)(C)n1ncc(OCc2ccc(OC(F)(F)C(F)OC(F)(F)F)cc2)c(Cl)c1=O (configuration not stated),68 to 69
10,Fc1ccc([C@H]2CC[C@H](NCc3ccn4c(CC5CC5)nnc4c3C(F)(F)F)CC2)c(F)c1,110
11,CCc1cccc(CC)c1NC(=O)C1c2ccccc2COc2c(C)ccc(C)c21 (configuration not stated),104 to 106
12,O=C(Nc1c[nH]nc1C(=O)NCCSc1ccccc1)c1ccccn1,180 to 181
13,CCOC(=O)C(NC(=O)c1ccc(OC)cc1)C(C)=O (configuration not stated),67 to 69
14,Oc1ccc(CN2CCCCC2)c2cccnc12,96
15,CC12CC3(C)CC(Br)(C1)CC(Br)(C2)C3,115 to 116
16,COc1cc(Nc2ncc(-c3cccc([N+](=O)[O-])c3)o2)ccc1-c1cnco1,279 to 281
17,COc1ccc(-n2nc(O)c3[nH]c4cc(Cl)ccc4c(=O)c3c2=O)c(C)c1,354 to 356
18,Cc1cc(C(=O)NN)ccc1-c1ccc(C(=O)C2CN(C)CCC23COc2cc4c(cc23)NCC4)cc1 (configuration not stated),130 to 135
19,COC(=O)c1cc(I)cc(C)c1OC,55 to 57
20,NS(=O)(=O)c1cc(C(=O)O)cc([N+](=O)[O-])c1Oc1cccc(Cl)c1,230 to 232
21,COc1cc2c(cc1OC)CN(CCCCNC(=O)c1cc(Br)ccc1OCCF)CC2,119 to 121
22,CCCn1c(=O)c2[nH]c(C34CC5CC3CC(C4)C5=O)nc2n(CCC)c1=O,172 to 174
23,CC(C)(Oc1ccc(C(=O)CN2CCN(c3ccncc3)CC2)cc1)C(=O)O,163 to 167
24,CCCc1c(OCCCOc2cccc3c2CCCC3)ccc2c1OC(CCCC(=O)O)(CCCC(=O)O)CC2=O,138
